Laboratory results as given in patent publication US20060122153A1, “Antineoplastic ether lipid compounds with modifications at the sn-2 carbon” (priority 2003, published 2006).
Like-named read-outs stand apart in the source and are kept apart here.

Legend:
WI38 = conditions: for GI50: WI38 normal human fibroblast cell line, 3 days
Source text: The following cell lines were selected from the cell bank for screening and GI50 studies: MCF-7: human breast tumor, MCF-7/ADR: MCF-7 adriamycin resistant subline, HT-29: human colon carcinoma, A-549: human non-small cell lung cancer, NIH-3T3: mouse Swiss embryo fibroblast and WI-38: human lung fibroblast, SKMEL-28: human melanoma, Lewis Lung: mouse lung carcinoma, DU-145: prostate carcinoma, B16F10: mouse melanoma, L1210: murine lymphocytic leukemia, P-388: murine leukemia, U-937: human histolytic lymphoma. Except HT-29, WI-38, NIH-3T3 and Lewis Lung which were obtained from the American Type Culture Collection (Rockville, Md.) all the other cell lines were obtained from National Cancer Institute—Frederick Research Facility (Frederick, Md.). All the cell lines were grown in RPMI-1640 medium containing 10% fetal bovine serum (FBS) except WI-38 and DU-145 which were grown in EMEM+10% FBS at 37° C., 5% CO2 and 100% humidity and NIH-3T3, Lewis Lung, B16F10 and L1210 which were grown in DMEM containing 10% FBS (10% HS for L1210). All the adherent cell lines were detached from the culture flasks by addition of 2-3 ml of 0.05% trypsin-EDTA. Thereafter, trypsin was inactivated by addition of 10 mL of 10% serum-containing RPMI-1640 medium. Cells were separated into a single-cell suspension by gentle pipetting action. Depending on the cell type, […] to 10,000 cells were plated onto 96-well plates a day prior to the drug treatment, in a volume of 100 μl per well.
The test compounds were made in-house and the compounds were dissolved PBS or saline at a stock concentration of approximately 20 mM, which is 400 times the desired final maximum test concentration. The stock solutions were then diluted with complete medium to twice the desired final concentration. 100 μl aliquots of each dilution was then added to the designated wells. After 3 days of incubation, cell growth was determined.
The SRB assay was performed as described by Monks, A., Scudiero, D., Skehan, P., Shoemaker, R., Paull, K., Vistica, D., Hose, C., Langley, J., Cronise, P., and Vaigro-Wolff, A. Feasibility of a high-flux anticancer drug screen using a diverse panel of cultured human tumo-r cell lines. J Natl Cancer Inst, 83: 757-766, 1991 with minor modifications. Following drug treatment, cells were fixed with 50 μl of cold 50% (wt/vol) trichloroacetic acid (TCA) for 60 minutes at 4° C. The supernatant was discarded, and the plates were washed six times with deionized water and then air dried. The precipitate was stained with 100 μl SRB solution (0.4% wt/vol in 1% acetic acid) for 10 minutes at room temperature, and free SRB was removed by washing three times with 1% acetic acid, and the plates were then air dried. Bound SRB was solubilized with Tris buffer (10 mM), and the ODs were read using an automated plate reader (Bio-Rad, Model 3550-UV) at 490 nm. Background values were subtracted from the test data, and the data was calculated as a % of control. […] Percentage growth was calculated as described by, Peters, A. C., Ahmad, I., Janoff, A. S., Pushkareva, M. Y., and Mayhew, E. Growth Inhibitory effects of liposome-associated 1-o-octadecyl-2-o-methyl-sn-glycero-3-phosphocholine. Lipids, 32:1045-1054, 1997. The raw optical density data Was imported into an Excel spreadsheet to determine dose responses. […] By varying drug concentration,-dose response curves were generated and the GI-50 values were calculated. The GI50 values for each experiment were calculated using data obtained from three duplicate wells on two separate plates.
For growth inhibitory evaluation, we used five human tumor cell lines (U937; HT29; A549; MCF7; MCF7/ADR) and two normal fibroblast cell lines (NIH-3T3, murine; WI-38, human).

K-562 = assay: NCI growth inhibition screen, leukemia panel; assay type: cell-based, human; parameters: key to Performance as compared to ET-18-O—CH3: = means equivalent activity; + means that it appears to be significantly better (i.e., by ˜2x); < means it appears to be less active than ET18OCH3 (˜2x); a combination like =/+ or </+ means that activity is dependent upon the isomer; a combination like =/+ or </+ means that activity is dependent upon the isomer; conditions: for Performance as compared to ET-18-O—CH3: K-562, Leukemia, from GI50s
Method: (§1) Candidates deemed suitable for in vivo testing were then synthesized in large scale quantities and some of this material was sent to the NCI's Developmental Therapeutics Program for a battery of growth inhibitory studies against various human tumor cell lines (60 cell lines, 9 different panels). The remainder of the material was used to assess in vivo efficacy using murine tumor models. Additionally, studies were conducted on the lead candidates to discern mechanism of action with particular emphasis on these agents apoptotic ability as measured by caspase 3 activity. The details (materials and methods) for these various assays are described further in the following discussion.
(§2) Ten compounds were also sent to NCI's Drug Discovery Program for screening against numerous human tumor cell lines (9 panels total: renal ovarian, colon, CNS, non-small cell lung, leukemia, breast, melanoma, and prostate). The data are shown in FIGS. 2a-i which also include data regarding D- and L-ET-18-OCH3 (listed as L-EL and D-EL in the figures). Upon examining the data, one is struck by how 1R and 1a′S standout in comparison to the other compounds, especially for the renal, ovarian, colon, and CNS panels.

RPMI-8226 = assay: NCI growth inhibition screen, leukemia panel; assay type: cell-based, human; parameters: key to Performance as compared to ET-18-O—CH3: = means equivalent activity; + means that it appears to be significantly better (i.e., by ˜2x); < means it appears to be less active than ET18OCH3 (˜2x); a combination like =/+ or </+ means that activity is dependent upon the isomer; a combination like =/+ or </+ means that activity is dependent upon the isomer; conditions: for activity (in words): RPMI-8226 cell line, NCI screen; for Performance as compared to ET-18-O—CH3: RPMI-8226, Leukemia, from GI50s
Method: as §1, §2

OVCAR-4 = assay: NCI growth inhibition screen, ovarian panel; assay type: cell-based, human; parameters: key to Performance as compared to ET-18-O—CH3: = means equivalent activity; + means that it appears to be significantly better (i.e., by ˜2x); < means it appears to be less active than ET18OCH3 (˜2x); a combination like =/+ or </+ means that activity is dependent upon the isomer; a combination like =/+ or </+ means that activity is dependent upon the isomer; conditions: for activity compared to both ET-18-OCH3 isomers (in words): OVCAR-4, NCI screen; for Performance as compared to ET-18-O—CH3: OVCAR-4, Ovarian, from GI50s
Method: as §1, §2

OVCAR-5 = assay: NCI growth inhibition screen, ovarian panel; assay type: cell-based, human; parameters: key to Performance as compared to ET-18-O—CH3: = means equivalent activity; + means that it appears to be significantly better (i.e., by ˜2x); < means it appears to be less active than ET18OCH3 (˜2x); a combination like =/+ or </+ means that activity is dependent upon the isomer; a combination like =/+ or </+ means that activity is dependent upon the isomer; conditions: for activity compared to both ET-18-OCH3 isomers (in words): OVCAR-5, NCI screen; for Performance as compared to ET-18-O—CH3: OVCAR-5, Ovarian, from GI50s
Method: as §1, §2

Row | Compound | GI50 (WI38) [µM] | activity (in words) (K-562; K-562 cell line, NCI screen) | activity (in words) (RPMI-8226) | cytotoxicity to normal human fibroblast as compared to ET-18-OCH3 (in words) (WI38) | activity compared to both ET-18-OCH3 isomers (in words) (OVCAR-4) | Performance as compared to ET-18-O—CH3 (OVCAR-4) | activity compared to both ET-18-OCH3 isomers (in words) (OVCAR-5) | Performance as compared to ET-18-O—CH3 (OVCAR-5) | Performance as compared to ET-18-O—CH3 (K-562) | Performance as compared to ET-18-O—CH3 (RPMI-8226) | cytotoxicity to normal human fibroblast as compared to ET-18-OCH3 (in words) (WI38; WI-38)
1 | CCCCCCCCCCCCCCCCCCOCC(COP(=O)([O-])OCC[N+](C)(C)C)OC [D-ET18OCH3, 1-O-octadecyl-2-O-methyl-glycerophosphocholine, reference compound] | 10 to 13.5 | extremely poor activity | extremely poor activity | – | – | – | – | – | – | – | –
2 | CCCCCCCCCCCCCCCCCCOC[C@@H](COP(=O)([O-])OCC[N+](C)(C)C)OS(C)(=O)=O [1a′S] | 16.3 | – | poor activity | less cytotoxic | significantly better activity | 2048 | significantly better activity | 4096 | =/+ | </+ | –
3 | CCCCCCCCCCCCCCCCCCOCC(COP(=O)([O-])OCC[N+](C)(C)C)OS(C)(=O)=O (centres unmarked) [Compound 1aR] | 40.9 | – | – | – | significantly better activity | + | significantly better activity | + | =/+ | =/+ | less cytotoxic
